# Measurements reported in patent publication US20070248680A1, “Particles for Inactivating Toxins” (Board of Regents, The University of Texas System, priority 2005, published 2007).
# “Also recorded” adds a separate entry of the source.
# Key:
# [1] = Persistence of FITC-BSA tagged particles in blood after intravenous introduction (fluorometry); assay type: in vivo; settings: Balb/C mice, about 5.0 micrometer particles
# Procedure: One feature of the present invention is that a particle preparation of the present invention is capable of remaining in the host for a length of time, longer than proteins, antibodies, vaccines, or antimicrobials are known to last in a mammalian host. […] Particle were tagged by conjugating with FITC-labeled bovine serum albumin (BSA) protein. […] The amount of BSA present in each sample was assessed by fluorometry. The tagged particles in FIG. 5A were FITC-BSA conjugated to NIPA particles of about 5.0 micrometers (typical diameter). […] In addition, greater than 20% of the BSA-NIPA particles were still present in the blood after two weeks.
# BSA antibodies = test: Protein adsorption from BSA antisera onto particles, SDS-PAGE of eluted proteins; assay type: binding, Balb/C mice; settings: serum of BSA-immunized mice, about 2 hours incubation, about 5 micrometer particles
# Procedure: Another feature is that a tagged particle of the present invention may specifically recognize proteins or other host components of interest and as desired. For example, tagged particles were made to recover or eliminate BSA antibodies from immunized animals. First, Balb/C mice were immunized with bovine serum albumin (BSA) protein for four weeks to trigger BSA antibody production. Two weeks later, mice were sacrificed and their serum was recovered for analyses. […] After incubation for at least about 2 hours, particles were recovered by centrifugation. From a portion of each sample of recovered particles, proteins were eluted. Particles and eluted proteins were analyzed by SDS-PAGE gel electrophoresis to identify proteins that had adsorbed to the particles.
# In FIG. 6, lane 1 is diluted mouse sera in PBS at concentration of 1 mg/mL; lanes 2, 5 and 7 depict proteins eluted from NIPA microparticles preincubated with antisera from three different mice; lanes 3, 4 and 6 depict proteins eluted from NIPA-BSA microparticles preincubated with antisera from three different mice. Lanes 2 and 3 are samples from a first mouse, lanes 4 and 5 are samples from a second mouse, and lanes 6 and 7 are samples from a third mouse.
# In another example depicting the specific recognition of tagged particles, a similar immunization strategy was used. […] Eluted proteins were analyzed using SDS-PAGE gel electrophoresis. […]
# BSA antibody = test: Removal of free BSA antibody from serum of BSA-immunized mice (ELISA); assay type: in vivo, Balb/C mice; settings: for time to removal of circulating BSA antibodies from serum / effect on free and circulating BSA antibody in serum: tail vein injection; for time to removal of circulating BSA antibodies from serum: FIG. 8B; for effect on free and circulating BSA antibody in serum: NIPA about 5 micrometers, PLLA about 10 micrometers, HA about 250 nanometers
# Source text: Another feature of the present invention is that selective tagging of particles of the present invention provides for the removal of select and specific unwanted products or toxins (e.g., unwanted proteins or antibodies) from a host. […] Following injection, mice (at least five mice per group) were sacrificed beginning on day one and continued to day 21. Serum samples from each mouse were recovered via retro-orbital blood collection. Sera was then used to measure the amount of free BSA antibody in the blood by standard enzyme-linked immuno-sorbent assay. FIGS. 8A and 8B are representative examples of the efficacy of specifically tagged particles, in which tagged particles are capable of removing a specific antibody present in serum.
# collagen antibody = test: Removal of collagen antibodies from circulation of collagen-immunized mice; assay type: in vivo, Balb/C mice; settings: week 7, one week after intravenous injection of about 2.0 mg particles/0.5 mL; about 100 nanometer NIPA
# Procedure: In still another example, Balb/C mice were immunized with bovine skin collagen following a standard immunization procedure as is known to one of ordinary skill in the art. At one week following immunization, mice began to produce antibodies against collagen. At the end of week 6 as depicted by the arrow in FIGS. 9A and 9B, mice were injected intravenously (via the tail vein) with particles tagged with and without bovine Type I collagen. Intravenous doses were about 2.0 mg particles/0.5 mL. FIGS. 9A and 9B are representative examples showing the in vivo efficacy of specifically tagged particles and their ability to remove a particular unwanted antibodies from circulation after allowing the unwanted antibody concentration to accumulate for six weeks. […] Histologic analyses of tissue samples collected from some representative animals, including samples from the kidneys, lung, liver, brain, intestines, heart and spleen, were examined for particles. […] These animals were also able to degrade the particle preparation (predominantly in the liver) and eliminate by-products of the preparation via hydrolysis (data not shown).
# In FIG. 9B, the conditions as described for FIG. 9A were repeated using particle preparations tagged comprising HPC particles of 1-5 micrometers (typical diameter) conjugated with collagen (HPC-collagen) or untagged particles (HPC) injected into mice.
Substance,particles still present in the blood after two weeks [1],time to removal of circulating BSA antibodies from serum (BSA antibody),effect on free and circulating BSA antibody in serum (BSA antibody),also measured
BSA-HPC: HPC particles (approximately 5.0 micrometers) conjugated to BSA,greater than 20%,,,
BSA-NIPA: FITC-BSA conjugated to NIPA particles of about 5.0 micrometers typical diameter,greater than 20%,less than a week,virtually complete by day 2,"time remained in the circulation ([1]; FIG. 5A): at least 2 weeks; proteins adsorbed to or recognized by particles (BSA antibodies; listed as BSA-NIPA microparticles): recognized a number of proteins, especially those representing immunoglobulin G; proteins adsorbed to or recognized by particles (BSA antibodies; listed as NIPA-BSA microparticles): recognized more proteins; free BSA antibodies in the serum (BSA antibody; tail vein injection at 6 weeks, about 5 micrometer particles, FIG. 8A): < 5%"
HA-BSA: HA nanoparticles (approximately 250 nanometers) tagged with BSA,,less than a week,,
NP-Collagen: NIPA particles (approximately 100 nanometers) conjugated with bovine Type I collagen,,,,reduction of collagen antibody concentration (collagen antibody): greater than 75%
PLLA-BSA: PLLA microparticles (approximately 10 micrometer) tagged with BSA,,less than a week,,
"bovine serum albumin [BSA, reference compound]",,,"did little to effect; also recorded: none of the untagged particles (HA, NIPA, PLLA) or BSA alone (BSA) when injected into a host were able to significantly effect",
